Laboratory results as given in ChEMBL document CHEMBL4342453, “Prenylated p-Terphenyls from a Mangrove Endophytic Fungus, Aspergillus candidus LDJ-5” (J Nat Prod, 2020).
In brackets after ≈: the same amount, converted by molar mass.

Key:
HL-60 = assay: Cytotoxicity against human HL60 cells after 72 hrs by MTT assay; type: functional, cell-based; details: HL-60, 72 h
HeLa = assay: Cytotoxicity against human HeLa cells after 24 hrs by SRB method
K562 = assay: Cytotoxicity against human K562 cells after 72 hrs by MTT assay; details: K562, 72 h
A549 = assay: Cytotoxicity against human A549 cells after 24 hrs by SRB method; details: A549, 24 h
HCT-116 = assay: Cytotoxicity against human HCT116 cells after 24 hrs by SRB method; details: HCT-116, 24 h
SH-SY5Y = assay: Cytotoxicity against human SH-SY5Y cells after 24 hrs by SRB method
L02 = assay: Cytotoxicity against human L02 cells after 24 hrs by SRB method; details: L02, 24 h
MGC-803 = assay: Cytotoxicity against human MGC803 cells after 24 hrs by SRB method; details: MGC-803, 24 h
Bel-7402 = assay: Cytotoxicity against human Bel7402 cells after 24 hrs by SRB method; details: Bel-7402, 24 h
U-87 MG = assay: Cytotoxicity against human U87 cells after 24 hrs by SRB method
Proteus = assay: Antibacterial activity against Proteus by conventional broth dilution assay; type: functional

| MIC (Proteus) [µg/mL] | Structure (SMILES) | IC50 (HL-60) [µM] | IC50 (HeLa) [µM] | IC50 (K562) [µM] | IC50 (A549) [µM] | IC50 (HCT-116) [µM] | IC50 (SH-SY5Y) [µM] | IC50 (L02) [µM] | IC50 (MGC-803) [µM] | IC50 (Bel-7402) [µM] | IC50 (U-87 MG) [µM] |
| --- | --- | --- | --- | --- | --- | --- | --- | --- | --- | --- | --- |
| – | COc1cc(-c2c(OC)cc(-c3ccccc3)c(OC)c2O)cc2c1OC(C)(C)CC2 | > 50 | 11.5 | > 50 | 16.3 | 16.9 | 12.4 | 29.7 | 12.5 | 12.6 | > 50 |
| – | COc1c(-c2ccccc2)cc(OC)c2c1oc1cc(O)c(OCC=C(C)C)cc12 | > 50 | 14 | 5 | 19.1 | 19.8 | 17.9 | 16.7 | 16.3 | 14.9 | 10.3 |
| – | COc1cc2oc3c(OC)c(-c4cc(CC=C(C)C)c(O)c(OC)c4)cc(OC)c3c2cc1O | 3.4 | 10.1 | > 50 | 2.8 | 0.9 | 2.2 | 17.9 | 1.4 | 16 | > 50 |
| 22 (≈ 50.2 µM) | COc1cc(-c2ccc(O)c(O)c2)c(OC)c(O)c1-c1ccc(OCC=C(C)C)c(O)c1 | > 50 | 2 | > 50 | 0.4 | 0.5 | 0.6 | 3.5 | 0.7 | > 50 | 13.8 |
| – | COc1ccc(-c2c(OC)cc(-c3ccc(O)c(CC=C(C)C)c3)c(OC)c2O)cc1OC | > 50 | 8.5 | 15.9 | 7.6 | 6.2 | 15.6 | > 50 | 8.1 | > 50 | > 50 |
| – | COc1cc(-c2c(OC)cc(-c3ccccc3)c(OC)c2O)ccc1OC/C=C(\C)CO | 7.1 | 8.3 | > 50 | 10.2 | 9.3 | 10.4 | 19.9 | 11 | 12.4 | > 50 |
| – | COc1c(-c2ccccc2)cc(OC)c2c1oc1c3c(c(O)cc12)OC(C)(C)C=C3 | > 50 | > 50 | > 50 | > 50 | > 50 | > 50 | > 50 | > 50 | > 50 | > 50 |
| – | COc1cc2oc3c(OC)c(-c4cc(CC=C(C)C)c(O)c(OC)c4)cc(OC)c3c2cc1OC | > 50 | > 50 | > 50 | > 50 | > 50 | > 50 | > 50 | > 50 | > 50 | > 50 |
| – | COc1cc(-c2c(OC)cc(-c3ccccc3)c(OC)c2O)cc(CC=C(C)C)c1O | > 50 | 11.4 | > 50 | 14.8 | 14.7 | 16.7 | 24.4 | 14.5 | 11.1 | > 50 |
